Experimental data published in patent US6737383B1, “Herbicidal oxadiazolidines” (priority 1999, dated 2004).

Experiments:
giant foxtail = experiment: Test B pre/postemergence giant foxtail; type: in vivo, Setaria faberii
Outline: (§1)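 Test chemicals in a non-phytotoxic solvent mixture with surfactant were sprayed preemergence onto planted seeds and postemergence onto plants 2 to 18 cm tall (1- to 4-leaf stage). After twelve to sixteen days in a greenhouse, injury was visually rated against untreated controls from 0 (no effect) to 10 (complete control).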

purple nutsedge = experiment: Test B pre/postemergence purple nutsedge; type: in vivo, Cyperus rotundus
Outline: as §1

velvetleaf = experiment: Test B pre/postemergence velvetleaf; type: in vivo, Abutilon theophrasti
Outline: as §1

blackgrass = experiment: Test B pre/postemergence blackgrass; type: in vivo, Alopecurus myosuroides
Outline: as §1

surinam grass = experiment: Test B pre/postemergence surinam grass; type: in vivo, Brachiaria decumbens
Outline: as §1

pigweed = experiment: Test B pre/postemergence pigweed; type: in vivo, Amaranthus retroflexus
Outline: as §1

wild oat = experiment: Test B pre/postemergence wild oat; type: in vivo, Avena fatua
Outline: as §1

cocklebur = experiment: Test B pre/postemergence cocklebur; type: in vivo, Xanthium strumarium
Outline: as §1

morningglory = experiment: Test B pre/postemergence morningglory; type: in vivo, Ipomoea hederacea
Outline: as §1

wheat = experiment: Test B pre/postemergence wheat; type: in vivo, Triticum aestivum
Outline: as §1

soybean = experiment: Test B pre/postemergence soybean; type: in vivo, Glycine max
Outline: as §1

corn = experiment: Test B pre/postemergence corn; type: in vivo, Zea mays
Outline: as §1

bedstraw = experiment: Test B pre/postemergence bedstraw; type: in vivo, Galium aparine; details: Preemergence
Outline: as §1

rape = experiment: Test B pre/postemergence rape; type: in vivo, Brassica napus
Outline: as §1

crabgrass = experiment: Test B pre/postemergence crabgrass; type: in vivo, Digitaria sanguinalis
Outline: as §1

sugar beet = experiment: Test B pre/postemergence sugar beet; type: in vivo, Beta vulgaris
Outline: as §1

[1] = Postemergence, Rate 62 g/ha, scale 0 to 10, 0 is no effect, 10 is complete control
[2] = Postemergence, Rate 125 g/ha, scale of 0 to 10 where 0 is no effect and 10 is complete control
[3] = Preemergence, Rate 62 g/ha, scale of 0 to 10 where 0 is no effect and 10 is complete control
[4] = Preemergence, Rate 125 g/ha, scale of 0 to 10 where 0 is no effect and 10 is complete control
[5] = Preemergence, Rate 250 g/ha, scale 0 (no effect) to 10 (complete control)
[6] = Rate 250 g/ha, Postemergence, scale 0 to 10, 0 is no effect, 10 is complete control
[7] = Rate 500 g/ha, Postemergence, scale 0 to 10, 0 is no effect, 10 is complete control
[8] = Preemergence, Rate 500 g/ha, scale of 0 to 10 where 0 is no effect and 10 is complete control

Compound: CC(C)N(C(=O)n1oc(=O)n(CF)c1=O)c1ccc(F)cc1 [Compound 709]
- Plant response rating, Giant foxtail (giant foxtail; [1]): 3
- Giant foxtail plant response rating (giant foxtail; [2]): 4
- Giant foxtail plant response rating (giant foxtail; [3]): 2
- Plant response rating, Giant foxtail (giant foxtail; [4]): 4
- Giant foxtail plant response rating (giant foxtail; [5]): 7
- Giant foxtail plant response rating (giant foxtail; [6]): 8
- Giant foxtail plant response rating (giant foxtail; [7]): 9
- Plant response rating, Nutsedge (purple nutsedge; [1]): 0
- Nutsedge plant response rating (purple nutsedge; [2]): 0
- Nutsedge plant response rating (purple nutsedge; [3]): 0
- Plant response rating, Nutsedge (purple nutsedge; [4]): 0
- Nutsedge plant response rating (purple nutsedge; [6]): 0
- Nutsedge plant response rating (purple nutsedge; [7]): 6
- Plant response rating, Velvetleaf (velvetleaf; [1]): 4
- Velvetleaf plant response rating (velvetleaf; [2]): 4
- Velvetleaf plant response rating (velvetleaf; [3]): 0
- Plant response rating, Velvetleaf (velvetleaf; [4]): 0
- Velvetleaf plant response rating (velvetleaf; [5]): 0
- Velvetleaf plant response rating (velvetleaf; [6]): 4
- Velvetleaf plant response rating (velvetleaf; [7]): 6
- Plant response rating, Blackgrass (blackgrass; [1]): 0
- Blackgrass plant response rating (blackgrass; [2]): 0
- Blackgrass plant response rating (blackgrass; [3]): 0
- Plant response rating, Blackgrass (blackgrass; [4]): 0
- Blackgrass plant response rating (blackgrass; [5]): 0
- Plant response rating, Blackgrass (blackgrass; [8]): 0
- Blackgrass plant response rating (blackgrass; [6]): 0
- Blackgrass plant response rating (blackgrass; [7]): 0
- Plant response rating, B. signalgrass (surinam grass; [1]): 0
- B. signalgrass plant response rating (surinam grass; [2]): 0
- B. signalgrass plant response rating (surinam grass; [3]): 0
- Plant response rating, B. signalgrass (surinam grass; [4]): 0
- B. signalgrass plant response rating (surinam grass; [5]): 0
- Plant response rating, B. signalgrass (surinam grass; [8]): 0
- B. signalgrass plant response rating (surinam grass; [6]): 0
- B. signalgrass plant response rating (surinam grass; [7]): 0
- Plant response rating, Redroot pigweed (pigweed; [1]): 5
- Redroot pigweed plant response rating (pigweed; [2]): 5
- Redroot pigweed plant response rating (pigweed; [3]): 0
- Plant response rating, Redroot pigweed (pigweed; [4]): 0
- Redroot pigweed plant response rating (pigweed; [5]): 5
- Redroot pigweed plant response rating (pigweed; [6]): 8
- Redroot pigweed plant response rating (pigweed; [7]): 8
- Plant response rating, Wild oats (wild oat; [1]): 0
- Wild oats plant response rating (wild oat; [2]): 0
- Wild oats plant response rating (wild oat; [3]): 0
- Plant response rating, Wild oats (wild oat; [4]): 0
- Wild oats plant response rating (wild oat; [5]): 0
- Wild oats plant response rating (wild oat; [6]): 0
- Wild oats plant response rating (wild oat; [7]): 0
- Plant response rating, Cocklebur (cocklebur; [1]): 0
- Cocklebur plant response rating (cocklebur; [2]): 0
- Cocklebur plant response rating (cocklebur; [3]): 0
- Plant response rating, Cocklebur (cocklebur; [4]): 0
- Cocklebur plant response rating (cocklebur; [5]): 0
- Plant response rating, Cocklebur (cocklebur; [8]): 0
- Cocklebur plant response rating (cocklebur; [6]): 0
- Cocklebur plant response rating (cocklebur; [7]): 3
- Morningglory plant response rating (morningglory; [2]): 0
- Morningglory plant response rating (morningglory; [3]): 0
- Plant response rating, Morningglory (morningglory; [4]): 0
- Morningglory plant response rating (morningglory; [5]): 0
- Morningglory plant response rating (morningglory; [6]): 2
- Morningglory plant response rating (morningglory; [7]): 6
- Plant response rating, Wheat (wheat; [1]): 0
- Wheat plant response rating (wheat; [2]): 0
- Wheat plant response rating (wheat; [3]): 0
- Plant response rating, Wheat (wheat; [4]): 0
- Wheat plant response rating (wheat; [5]): 0
- Wheat plant response rating (wheat; [6]): 0
- Wheat plant response rating (wheat; [7]): 0
- Plant response rating, Soybean (soybean; [1]): 1
- Soybean plant response rating (soybean; [2]): 3
- Soybean plant response rating (soybean; [3]): 0
- Plant response rating, Soybean (soybean; [4]): 0
- Soybean plant response rating (soybean; [5]): 0
- Soybean plant response rating (soybean; [6]): 3
- Soybean plant response rating (soybean; [7]): 4
- Plant response rating, Corn (corn; [1]): 0
- Corn plant response rating (corn; [2]): 0
- Corn plant response rating (corn; [3]): 0
- Plant response rating, Corn (corn; [4]): 0
- Corn plant response rating (corn; [5]): 0
- Corn plant response rating (corn; [6]): 0
- Corn plant response rating (corn; [7]): 0
- Bedstraw plant response rating (bedstraw; Rate 62 g/ha, scale of 0 to 10 where 0 is no effect and 10 is complete control): 0
- Plant response rating, Bedstraw (bedstraw; Rate 125 g/ha, scale of 0 to 10 where 0 is no effect and 10 is complete control): 0
- Bedstraw plant response rating (bedstraw; Rate 250 g/ha, scale 0 (no effect) to 10 (complete control)): 0
- Plant response rating, Bedstraw (bedstraw; Rate 500 g/ha, scale of 0 to 10 where 0 is no effect and 10 is complete control): 0
- Plant response rating, Rape (rape; [1]): 0
- Rape plant response rating (rape; [2]): 0
- Rape plant response rating (rape; [3]): 0
- Plant response rating, Rape (rape; [4]): 0
- Rape plant response rating (rape; [5]): 0
- Rape plant response rating (rape; [6]): 0
- Rape plant response rating (rape; [7]): 0
- Plant response rating, Crabgrass (crabgrass; [1]): 2
- Crabgrass plant response rating (crabgrass; [2]): 3
- Crabgrass plant response rating (crabgrass; [3]): 2
- Plant response rating, Crabgrass (crabgrass; [4]): 3
- Crabgrass plant response rating (crabgrass; [5]): 7
- Crabgrass plant response rating (crabgrass; [6]): 6
- Crabgrass plant response rating (crabgrass; [7]): 8
- Plant response rating, Sugarbeets (sugar beet; [1]): 0
- Sugarbeets plant response rating (sugar beet; [2]): 0
- Sugarbeets plant response rating (sugar beet; [3]): 0
- Plant response rating, Sugarbeets (sugar beet; [4]): 0
- Sugarbeets plant response rating (sugar beet; [5]): 0
- Sugarbeets plant response rating (sugar beet; [6]): 0
- Sugarbeets plant response rating (sugar beet; [7]): 0
